pIC50: −log10 of the molar value. Entries after “also recorded” stand apart in the source; their conditions may differ. Like-named read-outs stand apart in the source and are kept apart here. Each block holds one molecule with its values, some of them ahead of it.
Columns and labels:
[1] = test system: Petroselinum xyloglucan endotransglucosylase (XET) activity; assay: Fluorescent dot-blot XET screen (cellulose-bound xyloglucan + XGO–SR on paper, in the dark); assay type: biochemical, parsley; details: for coagulation ('type c' effect) in dot-blot: EDI collection, 0.4 mg/ml in enzyme mixture
Description: For inhibitor screening, 53 new 96-well plates were set up with 50 μl of parsley enzyme extract per well, and 1 μl of DMSO-solubilised xenobiotic was added to each well, giving concentrations of 0.4 mg/ml (EDI collection, with exceptions noted in Table S2) or 50 μM (LATCA collection) and 2% v/v DMSO.
XET test-paper was prepared as before ([Fry, 1997]) and 112 × 75-mm sheets were attached to cellulose acetate overhead-projector sheets with ‘Spraymount’ adhesive. Each sheet was placed on a pre-cooled glass plate in a cold room at 4 °C.
For inhibitor screening (Fig. 2), 4 μl of a parsley enzyme/xenobiotic mixture was applied to each position on a sheet. Incubation at 20 °C for 2 h, washing, drying and photography were conducted essentially as above.

parsley XET activity = assay: Radiochemical XET assay (soluble xyloglucan + [3H]XXXGol); assay type: biochemical; details: for inhibition of XET activity: additional LATCA compounds re-tested radiochemically at 200 μM; for effect on XET activity in radiochemical assays (as summarised in the discussion): free solution; for effect on XET activity, radiochemical re-screen of 206 compounds (mostly LATCA): LATCA approx. 25 μM, EDI approx. 200 μg/ml, listed in order of decreasing effectiveness; for effect on XET activity, first radiochemical re-screen of EDI hits: most xenobiotics at 200 μg/ml (≈200–800 μM)
Description: The parsley enzyme concentration was held constant, and the xenobiotics were tested at 200, 160, 120, 80, 40, 20, 10 and 0 μg/ml (concentrations in the final reaction mixture). Other details were as above.
The riboflavin-free controls received the same DMSO concentration.

[2] = test system: Zea cell-suspension cultures; assay: Cell expansion (SCV, PCV) in Zea cell-suspension culture; assay type: cell-based, Zea mays; details: Zea, 4 d incubation
Description: Cell-suspension cultures of “Paul’s Scarlet” rose [a complex hybrid; genus Rosa; isolated in October 1957 from sections of young stem material; [Nickell and Tulecke, 1959]) and maize (Zea mays L., Black Mexican Sweetcorn, donated by Dr. I. Moore, Department of Botany, University of Edinburgh) were grown under constant dim illumination (10 μmol m^−2 s^−1) on an orbital shaker at 25 °C. Rose cells were maintained as described by [Chormova et al. (2014)] and maize cells as described by [Kerr and Fry (2003)].
Eight xenobiotics that inhibited XET activity were selected for biological testing. Mini-cultures [2 ml, 5% (v/v) SCV; transferred from a standard culture 7 d after sub-culturing] were incubated in 12-well tissue culture microplates with the lids closed loosely. Xenobiotics were added as concentrated stocks in DMSO (final DMSO concentration 2%), and incubation was continued aseptically under standard conditions of temperature, lighting and shaking. After 4 d, 1 kBq of [^14C]proline was added per mini-culture. A small volume of medium (50 μl) was sampled 2 and 4 h after [^14C]proline addition and assayed for remaining extracellular ^14C. The culture was brought up to 10 ml with water and the settled and packed cell volumes (SCV, PCV) were then measured ([Fry and Street, 1980]). Most of the culture medium was then removed and the cells were finally killed by addition of 0.5 ml of 6% SDS. After 0.5 h at 100 °C, a 100-μl aliquot of the centrifuged SDS-extract was dried onto Whatman No. 3 paper, which was then washed in 75% ethanol supplemented with 0.5% acetic acid, thus removing free [^14C]proline and its low-Mr metabolites if any; radioactivity remaining on the paper ([^14C]protein) was then assayed.

[3] = test system: Zea cell-suspension cultures; assay: Membrane function ([14C]proline uptake) in Zea culture; assay type: cell-based, Zea mays; details: 4 d after xenobiotic, higher tested concentration
[4] = EDI 0.4 mg/ml, LATCA 50 μM, 2 h, dark, cellulose-bound xyloglucan
[5] = soluble xyloglucan, laboratory light

Molecule: COc1cc(O)c2c(c1N)C(=O)c1ccccc1C2=O [1-amino-4-hydroxy-2-methoxyanthracene-9,10-dione]
effect on XET activity in dot-blot (inhibition / promotion) [1, 4]: apparent promoters | inhibition of XET activity (parsley XET activity): 29% | effect on XET activity in radiochemical assays (as summarised in the discussion) (parsley XET activity; [5]): moderately inhibitory

Molecule: O=C(O)c1cc[c]([Hg][Cl])cc1 [4-chloromercuribenzoic acid]
effect on XET activity in dot-blot (inhibition / promotion) [1, 4]: strong inhibitor | effect on XET activity, radiochemical re-screen of 206 compounds (mostly LATCA) (parsley XET activity): inhibition | XET activity inhibited (parsley XET activity; by ∼50 μM, little further inhibition up to ∼400 μM): 50–60%

Molecule: Cc1ccc(SCc2ccc(C(=O)NCc3ccccn3)cc2)cc1 [4-{[(4-methylphenyl)thio]methyl}-N-(2-pyridinylmethyl)-benzamide]
effect on XET activity, radiochemical re-screen of 206 compounds (mostly LATCA) (parsley XET activity): inhibition

Molecule: O=C1c2cccc3c(Br)ccc(c23)C(=O)N1O [6-bromo-2-hydroxy-1H-benzo[de]isoquinoline-1,3(2H)-dione]
effect on XET activity, radiochemical re-screen of 206 compounds (mostly LATCA) (parsley XET activity): inhibition

Molecule: Cc1cccc(OCC(=O)N/N=C/c2ccc(Br)o2)c1 [N′-(1E)-(5-bromofuran-2-yl)methylidene-2-(3-methylphenoxy)acetohydrazide]
inhibition of XET activity (parsley XET activity): 24%

Molecule: Cc1cc2nc3cc(C)c(N)cc3[n+](-c3ccccc3)c2cc1N [Safranine O]
effect on XET activity in dot-blot (inhibition / promotion) [1, 4]: stimulatory

Molecule: Cc1cc(C(=C2C=CC(=Nc3ccc(S(=O)(=O)O)cc3)C=C2)c2ccc(Nc3ccc(S(=O)(=O)O)cc3)cc2)cc(S(=O)(=O)O)c1N [aniline blue]
effect on XET activity in radiochemical assays (as summarised in the discussion) (parsley XET activity; [5]): inhibiting XET activity

Molecule: O=c1cc(-c2ccc(O)cc2)oc2cc(O)cc(O)c12 [apigenin]
effect on XET activity in dot-blot (inhibition / promotion) [1, 4]: promoted | coagulation ('type c' effect) in dot-blot [1]: coagulation | effect on XET activity in radiochemical assays (as summarised in the discussion) (parsley XET activity; [5]): little effect

Molecule: CCOc1ccc(Nc2ccc(C(=C3C=CC(=[N+](CC)Cc4cccc(S(=O)(=O)[O-])c4)C=C3)c3ccc(N(CC)Cc4cccc(S(=O)(=O)O)c4)cc3)cc2)cc1 [brilliant blue R]
effect on XET activity, radiochemical re-screen of 206 compounds (mostly LATCA) (parsley XET activity): inhibition

Molecule: Cc1cc(C2(c3cc(C)c(O)c(Br)c3)OS(=O)(=O)c3ccccc32)cc(Br)c1O [bromocresol purple]
effect on XET activity, radiochemical re-screen of 206 compounds (mostly LATCA) (parsley XET activity): inhibition

Molecule: COc1cccc2c1C(=O)c1c(O)c3c(c(O)c1C2=O)C[C@@](O)(C(C)=O)C[C@@H]3O[C@H]1C[C@H](N)[C@H](O)[C@H](C)O1 [daunorubicin]
effect on XET activity in dot-blot (inhibition / promotion) [1, 4]: apparent promoters; also recorded: promoted | effect on XET activity in radiochemical assays (as summarised in the discussion) (parsley XET activity; [5]): moderately inhibitory; also recorded: inhibited

Molecule: CC(C)C(C)C(O)C(O)C(C)C1CCC2C3COC(=O)C4CC(O)C(O)CC4(C)C3CCC12C (stereo not drawn) [epibrassinolide]
inhibition of XET activity (parsley XET activity): 22%

Molecule: CC(=O)[O][Hg][c]1ccccc1 [phenylmercuric acetate]
effect on XET activity in dot-blot (inhibition / promotion) [1, 4]: inhibitors | effect on XET activity, radiochemical re-screen of 206 compounds (mostly LATCA) (parsley XET activity): inhibition

Molecule: O=[N+]([O-])[O-].[Ag+] [silver nitrate]
effect on XET activity in dot-blot (inhibition / promotion) [1]: inhibitors

Molecule: C[CH2][Hg][S]c1ccccc1C(=O)[O-].[Na+] [thiomersal]
effect on XET activity in dot-blot (inhibition / promotion) [1, 4]: did not show inhibitory effects | effect on XET activity, radiochemical re-screen of 206 compounds (mostly LATCA) (parsley XET activity): inhibition

Molecule: tannic acid
effect on XET activity, first radiochemical re-screen of EDI hits (parsley XET activity): inhibitory

More lines, main results first:

effect on XET activity in dot-blot (inhibition / promotion) [1, 4]: promoted | coagulation ('type c' effect) in dot-blot [1]: coagulation
Molecule: O=c1cc(-c2ccccc2)oc2cc(O)c(O)c(O)c12 [baicalein]
effect on XET activity in radiochemical assays (as summarised in the discussion) (parsley XET activity; [5]): inhibited

effect on XET activity in dot-blot (inhibition / promotion) [1, 4]: XET inhibitor
Molecule: O=c1c2ccccc2[se]n1-c1ccccc1 [ebselen]
concentration inhibiting growth (PCV) without membrane impairment [2]: 70 µM | effect on XET activity, radiochemical re-screen of 206 compounds (mostly LATCA) (parsley XET activity): inhibition

pIC50 (parsley XET activity; read-out: IC50 (concentration required for 50% inhibition of XET activity), radiochemical assay, soluble xyloglucan, laboratory light, 2 h, 20 °C): ~3.40
Molecule: O=C(O[C@@H]1Cc2c(O)cc(O)cc2O[C@@H]1c1ccc(O)c(O)c1)c1cc(O)c(O)c(O)c1 [epicatechin gallate]
effect on XET activity, first radiochemical re-screen of EDI hits (parsley XET activity): inhibitory

effect on XET activity in dot-blot (inhibition / promotion) [1, 4]: did not show inhibitory effects
Molecule: Cc1cc2nc3c(=O)[nH]c(=O)nc-3n(C[C@H](O)[C@H](O)[C@H](O)COP(=O)(O)OP(=O)(O)OC[C@H]3O[C@@H](n4cnc5c(N)ncnc54)[C@H](O)[C@@H]3O)c2cc1C [flavin adenine dinucleotide]
effect on XET activity, radiochemical re-screen of 206 compounds (mostly LATCA) (parsley XET activity): inhibition

effect on XET activity in dot-blot (inhibition / promotion) [1, 4]: stimulatory
Molecule: C=C[C@@]1(C)CC(=O)[C@]2(O)[C@@]3(C)[C@@H](O)CCC(C)(C)[C@@H]3[C@H](O)[C@H](OC(C)=O)[C@@]2(C)O1 [forskolin]

effect on XET activity in dot-blot (inhibition / promotion) [1, 4]: slightly enhanced
Molecule: COc1ccc([C@@H]2CC(=O)c3c(O)cc(O)cc3O2)cc1O [hesperetin]

effect on XET activity in dot-blot (inhibition / promotion) [1, 4]: stimulatory
Molecule: OCc1c[nH]c2ccccc12 [indole 3-carbinol]

effect on XET activity in dot-blot (inhibition / promotion) [1, 4]: promotion; also recorded: promoted
Molecule: O=C(O)[C@H](O)[C@@H](O)[C@H](O[C@@H]1O[C@H](CO)[C@H](O)[C@H](O)[C@H]1O)[C@H](O)CO [lactobionic acid]
effect on XET activity in radiochemical assays (as summarised in the discussion) (parsley XET activity; [5]): little effect

effect on XET activity in dot-blot (inhibition / promotion) [1, 4]: promoted | coagulation ('type c' effect) in dot-blot [1]: coagulation
Molecule: O=c1cc(-c2ccc(O)c(O)c2)oc2cc(O)cc(O)c12 [luteolin]
effect on XET activity in radiochemical assays (as summarised in the discussion) (parsley XET activity; [5]): inhibited

membrane function [3]: impaired
Molecule: COc1c(C)c2c(c(O)c1C/C=C(\C)CCC(=O)O)C(=O)OC2 [mycophenolic acid]
concentration inhibiting growth (PCV) without membrane impairment [2]: 60 µM

effect on XET activity in dot-blot (inhibition / promotion) [1, 4]: stimulatory
Molecule: C[C@@H]1C/C=C/C=C/C=C/C=C/[C@H](O[C@@H]2O[C@H](C)[C@@H](O)[C@H](N)[C@@H]2O)C[C@@H]2O[C@](O)(C[C@@H](O)C[C@H]3O[C@@H]3/C=C/C(=O)O1)C[C@H](O)[C@H]2C(=O)O [natamycin]

coagulation ('type c' effect) in dot-blot [1]: coagulation
Molecule: O=C1OC(c2ccc(O)cc2)(c2ccc(O)cc2)c2ccccc21 [phenolphthalein]
effect on XET activity, first radiochemical re-screen of EDI hits (parsley XET activity): inhibitory

effect on XET activity in dot-blot (inhibition / promotion) [1, 4]: promoted | coagulation ('type c' effect) in dot-blot [1]: coagulation
Molecule: O=C(CCc1ccc(O)cc1)c1c(O)cc(O)cc1O [phloretin]
effect on XET activity, first radiochemical re-screen of EDI hits (parsley XET activity): inhibitory | effect on XET activity in radiochemical assays (as summarised in the discussion) (parsley XET activity; [5]): inhibited

effect on XET activity in dot-blot (inhibition / promotion) [1, 4]: slightly enhanced
Molecule: O=C(CCc1ccc(O)cc1)c1c(O)cc(O)cc1O[C@@H]1O[C@H](CO)[C@@H](O)[C@H](O)[C@H]1O [phloridzin]

effect on XET activity in dot-blot (inhibition / promotion) [1, 4]: promotion
Molecule: O=C(O)c1ccccc1C(=O)O [phthalic acid]

effect on XET activity in dot-blot (inhibition / promotion) [1, 4]: promoted
Molecule: O=C(O)[C@]1(O)C[C@@H](O)[C@@H](O)[C@H](O)C1 [quinic acid]
effect on XET activity in radiochemical assays (as summarised in the discussion) (parsley XET activity; [5]): little effect

effect on XET activity in dot-blot (inhibition / promotion) [1, 4]: promotion
Molecule: O=C(O)[C@H](O)[C@@H](O)[C@H](O)CO [xylonic acid]

— paper PMC4560162, “Discovery of small molecule inhibitors of xyloglucan endotransglucosylase (XET) activity by high-throughput screening” (Phytochemistry, 2015)
